25 compounds from patent publication US7816522B2, “Triazolone derivatives” (Eisai Co., Ltd., priority 2006, dated 2010) can be followed below.

The target of this assay is T1, human clotting factor VIIa (Homo sapiens, UniProt P08709).
T1 construct: a human clotting factor VIIa (hereinafter, “Factor VIIa”) purified sample; purchased Enzyme Research Laboratories HFVIIa
T1 sequence (P08709 213-466 limits assumed): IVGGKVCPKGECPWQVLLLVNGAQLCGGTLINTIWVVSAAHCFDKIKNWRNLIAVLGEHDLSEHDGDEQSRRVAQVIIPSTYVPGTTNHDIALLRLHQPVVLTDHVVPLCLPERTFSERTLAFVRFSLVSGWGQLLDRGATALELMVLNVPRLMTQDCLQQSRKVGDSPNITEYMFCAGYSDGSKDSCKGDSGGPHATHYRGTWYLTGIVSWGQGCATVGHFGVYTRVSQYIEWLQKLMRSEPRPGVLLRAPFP
T1 sequence (P08709 61-212 limits assumed): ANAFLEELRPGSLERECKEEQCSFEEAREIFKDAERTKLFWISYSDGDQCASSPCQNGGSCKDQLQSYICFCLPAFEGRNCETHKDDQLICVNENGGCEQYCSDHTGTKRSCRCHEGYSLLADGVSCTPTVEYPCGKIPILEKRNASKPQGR
T1 sequence (P13726 33-295 partner): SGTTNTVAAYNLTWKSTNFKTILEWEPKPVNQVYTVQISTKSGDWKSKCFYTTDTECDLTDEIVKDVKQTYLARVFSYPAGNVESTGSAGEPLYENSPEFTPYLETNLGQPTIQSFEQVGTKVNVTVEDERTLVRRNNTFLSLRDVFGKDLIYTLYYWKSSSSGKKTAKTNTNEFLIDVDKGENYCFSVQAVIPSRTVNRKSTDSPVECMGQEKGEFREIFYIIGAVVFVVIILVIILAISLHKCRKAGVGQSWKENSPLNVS
The assay can be described thus: Inhibitory activity against clotting factor VIIa (chromogenic substrate Spectrozyme FVIIa, TF/Factor VIIa enzyme solution). The format is biochemical. The settings on record: human Factor VIIa 5 nmol/L with human TF 10 nmol/L, room temperature 40 minutes, 405 nm. The method, boiled down:
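Human Factor VIIa (5 nmol/L) with human TF (10 nmol/L) in Tris-BSA buffer pH 7.4 containing 15 mmol/L CaCl2 and cephalin, with Spectrozyme FVIIa substrate. Reaction 40 min at room temperature; 4-nitroanilide read at 405 nm. IC50 by non-linear regression over 100 μmol/L–0.1 nmol/L.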
A word on the IC50: it is the midpoint of a concentration-inhibition curve. A low value points to inhibition by little substance. Turning to `COc1cc(C(Nc2ccc(C(=N)N)cc2)c2nn(-c3ccsc3C(=O)O)c(=O)[nH]2)c(F)c2c1OCCC2` (racemic) [Example 222, 3-{3-[(4-Carbamimidoylphenylamino)-(5-fluoro-8-methoxychroman-6-yl)methyl]-5-oxo-4,5-dihydro-[1,2,4]triazol-1-yl}thiophene-2-carboxylic acid], the IC50 was determined as 2.7 nM. This lies in the single-digit nanomolar range. The result for `COCCOc1cc(C)cc(C(Nc2ccc(C(=N)N)cc2)c2nn(-c3ncccn3)c(=O)[nH]2)c1` (racemic) [Example 94, 4-{[(R) and (S)-[3-(2-methoxyethoxy)-5-methylphenyl]-(5-oxo-1-pyrimidin-2-yl-4,5-dihydro-1H-[1,2,4]triazol-3-yl)methyl]amino}benzamidine acetate] reads 12.7 nM. The same measure for `COc1cc(C(Nc2ccc(C(=N)N)cc2)c2nn(-c3ncccn3)c(=O)[nH]2)cc2c1OCC2OC` (racemic) [Example 82, (R) and (S)-4-({(3,7-dimethoxy-2,3-dihydrobenzofuran-5-yl)-(5-oxo-1-pyrimidin-2-yl-4,5-dihydro-1H-[1,2,4]triazol-3-yl)methyl}amino)benzamidine acetate]: 7.5 nM; for `COc1cc(C(Nc2ccc(C(=N)N)cc2)c2nn(-c3ncccn3)c(=O)[nH]2)cc2c1OCOC2` (racemic) [Example 21, (R) and (S)-4-{[(8-methoxy-4H-benzo[1,3]dioxin-6-yl)-(5-oxo-1-pyrimidin-2-yl-4,5-dihydro-1H-[1,2,4]triazol-3-yl)methyl]amino}benzamidine acetate]: 10.6 nM. The result for `COc1cc(OCCF)c(F)c(C(Nc2ccc(C(=N)N)cc2)c2nn(-c3cccc(N)n3)c(=O)[nH]2)c1` (racemic) [Example 174, (R) and (S)-4-({[1-(6-aminopyridin-2-yl)-5-oxo-4,5-dihydro-1H-[1,2,4]triazol-3-yl]-[2-fluoro-3-(2-fluoroethoxy)-5-methoxyphenyl]methyl}amino)benzamidine acetate] reads 1.8 nM. In turn, `COc1cc(F)c(C(Nc2ccc(C(=N)N)cc2)c2nn(-c3ccsc3C(=O)O)c(=O)[nH]2)cc1OC` (racemic) [Example 171, (R) and (S)-3-{3-[(4-carbamimidoylphenylamino)-(2-fluoro-4,5-dimethoxyphenyl)methyl]-5-oxo-4,5-dihydro[1,2,4]triazol-1-yl}thiophene-2-carboxylic acid] had a half-inhibitory concentration (IC50) of 3.3 nM. In turn, `CCOc1cc(OCCO)cc(C(Nc2ccc(C(=N)N)cc2)c2nn(-c3ncccn3)c(=O)[nH]2)c1` (racemic) [Example 220, 4-{[[3-Ethoxy-5-(2-hydroxyethoxy)phenyl]-(5-oxo-1-pyrimidin-2-yl-4,5-dihydro-1H-[1,2,4]triazol-3-yl)methyl]amino}benzamidine] registered an IC50 of 7.2 nM. In the case of `COc1cc(C(Nc2ccc(C(=N)N)cc2)c2nn(-c3ncccn3)c(=O)[nH]2)cc2c1OCCC2` (racemic) [Example 24, (R) and (S)-4-{[(8-methoxychroman-6-yl)-(5-oxo-1-pyrimidin-2-yl-4,5-dihydro-1H-[1,2,4]triazol-3-yl)methyl]amino}benzamidine acetate], it took 7.4 nM to reach half-maximal inhibition (IC50). The result for `COc1cc(C(Nc2ccc(C(=N)N)cc2)c2nn(-c3ncccn3)c(=O)[nH]2)cc2c1OCC(=O)N2CCF` (racemic) [Example 223, 4-{[[4-(2-Fluoroethyl)-8-methoxy-3-oxo-3,4-dihydro-2H-benzo[1,4]oxazin-6-yl]-(5-oxo-1-pyrimidin-2-yl-4,5-dihydro-1H-[1,2,4]triazol-3-yl)methyl]amino}benzamidine] reads 13.4 nM; that for `COc1cc(OCCO)c(F)c(C(Nc2ccc(C(=N)N)cc2)c2nn(-c3ncccc3N)c(=O)[nH]2)c1` (racemic) [Example 201, 4-({(R) and (S)-[1-(3-Aminopyridin-2-yl)-5-oxo-4,5-dihydro-1H-[1,2,4]triazol-3-yl]-[2-fluoro-3-(2-hydroxyethoxy)-5-methoxyphenyl]methyl}amino)benzamidine acetate], 7.8 nM; that for `COc1cc(C(Nc2ccc(C(=N)N)cc2)c2nn(-c3[nH]ncc3C(=O)O)c(=O)[nH]2)c(F)c2c1OCCC2` (stereo not shown) [Example 189, 5-{3-[(4-Carbamimidoylphenylamino)-(5-fluoro-8-methoxychroman-6-yl)methyl]-5-oxo-4,5-dihydro-[1,2,4]triazol-1-yl}-1H-pyrazole-4-carboxylic acid], 32.2 nM. The same measure for `COc1cc(OC)cc(C(Nc2ccc(C(=N)N)cc2)c2nn(-c3ncccc3C)c(=O)[nH]2)c1` (racemic) [Example 225, (R) and (S)-4-({(3,5-Dimethoxyphenyl)-[1-(3-methylpyridin-2-yl)-5-oxo-4,5-dihydro-1H-[1,2,4]triazol-3-yl]methyl}amino)benzamidine acetate]: 3.7 nM; for `CCOc1cc(C(Nc2ccc(C(=N)N)cc2)c2nn(-c3ncccn3)c(=O)[nH]2)ccc1OC` (racemic) [Example 17, (R) and (S)-4-{[(3-ethoxy-4-methoxyphenyl)-(5-oxo-1-pyrimidin-2-yl-4,5-dihydro-1H-[1,2,4]triazol-3-yl)methyl]amino}benzamidine acetate]: 7.5 nM. Take `COc1cc(C(Nc2ccc(C(=N)N)cc2)c2nn(-c3cccnn3)c(=O)[nH]2)cc2c1OCOC2` (racemic) [Example 150, (R) and (S)-4-{[(8-methoxy-4H-benzo[1,3]dioxin-6-yl)-(5-oxo-1-pyridazin-3-yl-4,5-dihydro-1H[1,2,4]triazol-3-yl)methyl]amino}benzamidine acetate]: it took 9 nM to reach half-maximal inhibition (IC50). The result for `CCOC(=O)c1cn[nH]c1-n1nc(C(Nc2ccc(C(=N)N)cc2)c2cc(OC)c3c(c2F)OCCO3)[nH]c1=O` (stereo not shown) [Example 175, 5-{3-[(4-carbamimidoylphenylamino)-(5-fluoro-8-methoxy-2,3-dihydrobenzo[1,4]dioxin-6-yl)methyl]-5-oxo-4,5-dihydro-[1,2,4]triazol-1-yl}-1H-pyrazole-4-carboxylic acid ethyl ester acetate] reads 6.5 nM; that for `CCOc1cc(OCCF)c(F)c(C(Nc2ccc(C(=N)N)cc2)c2nn(-c3cccnn3)c(=O)[nH]2)c1` (racemic) [Example 70, 4-({(R) and (S)-[5-ethoxy-2-fluoro-3-(2-fluoroethoxy)phenyl]-(5-oxo-1-pyridazin-3-yl-4,5-dihydro-1H-[1,2,4]triazol-3-yl)methyl}amino)benzamidine acetate], 4.9 nM; that for `C=CCOc1cc(C(Nc2ccc(C(=N)N)cc2)c2nn(-c3ncccn3)c(=O)[nH]2)ccc1OC` (racemic) [Example 118, (R) and (S)-4-{[(3-allyloxy-4-methoxyphenyl)-(5-oxo-1-pyrimidin-2-yl-4,5-dihydro-1H-[1,2,4]triazol-3-yl)methyl]amino}benzamidine acetate], 7.3 nM.

In turn, `COc1cc(C(Nc2ccc(C(=N)N)cc2)c2nn(-c3ncccc3N)c(=O)[nH]2)cnc1OC` (racemic) [Example 186, 4-{[(R) and (S)-[1-(3-Aminopyridin-2-yl)-5-oxo-4,5-dihydro-1H-[1,2,4]triazol-3-yl]-(5,6-dimethoxypyridin-3-yl)methyl]amino}benzamidine acetate] showed an IC50 of 4.6 nM. For the compound `COc1cc(C(Nc2ccc(C(=N)N)cc2)c2nn(-c3ccccc3C(N)=O)c(=O)[nH]2)cc2c1OCOC2` (racemic) [Example 211, 2-{3-[(4-Carbamimidoylphenylamino)-(8-methoxy-4H-benzo[1,3]dioxin-6-yl)methyl]-5-oxo-4,5-dihydro[1,2,4]triazol-1-yl}benzamide], the 50% inhibitory concentration (IC50) worked out at 4.7 nM.

In turn, `CCOc1cc(OCCF)cc(C(Nc2ccc(C(=N)N)cc2)c2nn(-c3cccnn3)c(=O)[nH]2)c1` (racemic) [Example 80, (R) and (S)-4-({[3-ethoxy-5-(2-fluoroethoxy)phenyl]-(5-oxo-1-pyridazin-3-yl-4,5-dihydro-1H-[1,2,4]triazol-3-yl)methyl}amino)benzamidine acetate] returned a half-inhibitory concentration (IC50) of 6.8 nM. Take `COc1cc(F)c(C(Nc2ccc(C(=N)N)c(F)c2)c2nn(-c3ncccn3)c(=O)[nH]2)cc1OC` (racemic) [Example 143, (R) and (S)-2-fluoro-4-{[(2-fluoro-4,5-dimethoxyphenyl)-(5-oxo-1-pyrimidin-2-yl-4,5-dihydro-1H-[1,2,4]triazol-3-yl)methyl]amino}benzamidine acetate]: the IC50 stood at 23 nM. This IC50 is about 3.4-fold higher than that of the compound before. Regarding `CCOc1cc(C(Nc2ccc(C(=N)N)cc2)c2nn(-c3ccccc3C(=O)O)c(=O)[nH]2)c(F)cc1OC` (racemic) [Example 122, (R) and (S)-2-{3[(4-carbamimidoylphenylamino)-(5-ethoxy-2-fluoro-4-methoxyphenyl)methyl]-5-oxo-4,5-dihydro-[1,2,4]triazol-1-yl}benzoic acid acetate], the midpoint of inhibition, the IC50, lay at 2 nM. The result for `COc1cc(OCC#N)c(F)c(C(Nc2ccc(C(=N)N)cc2)c2nn(-c3cccnn3)c(=O)[nH]2)c1` (racemic) [Example 148, (R) and (S)-{[(3-cyanomethoxy-2-fluoro-5-methoxyphenyl)-(5-oxo-1-pyridazin-3-yl-4,5-dihydro-1H-[1,2,4]triazol-3-yl)methyl]amino}benzamidine acetate] reads 8.7 nM; that for `COc1cc(OC)c(F)c(C(Nc2ccc(C(=N)N)cc2)c2nn(-c3ncc[nH]c3=O)c(=O)[nH]2)c1` (racemic) [Example 154, (R) and (S)-4-({(2-fluoro-3,5-dimethoxyphenyl)-[5-oxo-1-(3-oxo-3,4-dihydropyrazin-2-yl)]-4,5-dihydro-1H-[1,2,4]triazol-3-yl]methyl}amino)benzamidine acetate], 21 nM; that for `COc1cc(C(Nc2ccc(C(=N)N)cc2)c2nn(-c3ncsc3C(=O)O)c(=O)[nH]2)c(F)c2c1OCCC2` (racemic) [Example 190, 4-{3-[(R) and (S)-(4-Carbamimidoylphenylamino)-(5-fluoro-8-methoxychroman-6-yl)methyl]-5-oxo-4,5-dihydro-[1,2,4]triazol-1-yl}thiazole-5-carboxylic acid], 7.9 nM.
